# pIC50: −log10 of the molar value.
# Columns and labels:
# [1] = system: U937 cells; assay: Induction of apoptosis by DEET; type: cell-based, human
# [2] = system: Jurkat T cells; assay: Induction of apoptosis by DEET; type: cell-based, human
# [3] = system: Daudi B cells; assay: Induction of apoptosis by DEET; type: cell-based, human
# [4] = system: human promonocytic lymphoma cells (U937); assay: Microculture indicator system (MIS), MTT growth inhibition assay with bivariate serial dilutions; type: cell-based
# Description: Microcultures of human promonocytic lymphoma cells (U937) (“the U937 cells”) originally obtained from the American Type Culture Collection (CRL 1593) and later grown by Dr. K. Zoon at the FDA in Bethesda, Md. were set up in a multiwell plate with serial two-fold dilutions of dThd in tissue culture growth medium (RPMI 1640 plus 10% Nurserum and antibiotics). The volume of medium per well was 100 μl and the cell number per well was about 1×10^5. The plate was incubated at 37° C. for 24 hr.
# A dye, 3-[4,5-dimethylthiazol-2-yl]-2,5-diphenyl-tetrazolium bromide (MTT), was used as a chromogenic indicator of the metabolically active cell mass. Viable cells metabolize the dye and accumulate a reduced formazan product (blue color) which is solubilized for colorimetry. Mossman T, J. Immunol. Methods 5:55-63 (1983); Li L and Lau B H S, In Vitro Cell Dev. Biol. 29A:531-536 (1993). The MTT assay has been established as useful for measuring either growth inhibition or population killing. Plowman, supra. The MTT method is ideal for cells tested in suspension growth, and can also be used for some cells growing in monolayers. […] Alley, supra; Hofs, supra; Wilson J K et al., Br. J. Cancer 62:189-94 (1990); Plowman, supra.
# Thirty μl of 0.5% MTT in phosphate buffered saline was added to each microculture well at the appropriate time. After incubation at 37° C. for 3 hr, 120 μl of an aqueous solution of 10 % SDS with 0.01 N HCl was added to release and dissolve formazan product. This was accomplished by overnight incubation of the plate at 37° C. After careful mixing of the microwell contents by placing the plates on an orbital shaker for 5 minutes the absorbencies were quantitated by spectrophotometry at 570 nm with a Ceres UV 900 HDI microwell plate reader (from Biotek Instruments Inc, Winooski, Vt. 05404-0998). Absorbance data was normalized to a blank well containing all reagents without cells and was collected semi-automatically.
# Flat-bottom 96-well plates of tissue culture quality (Corning or Costar) were set up with two-fold serial dilutions of each agent to be tested, e.g., the RA and TCI, using a multichannel pipettor with adjustable volume, e.g., Costar or Rainin, to perform serial mixing. This set-up is diagrammed in FIG. 12. […] In each plate, a total of 59 wells then contained bivariate agent combinations, the bivariate serial dilutions.
# Agents were serially diluted by serial mixing in two separate plates or series of wells, and then were combined prior to addition of a fixed volume and density of the U937 cells in a suspension calculated to deliver about 1×10^5 cells per well.
# Cells were added after serial dilutions of the dThd had been dispensed. Cells were dispensed at about 10×10^4 cells per microwell to provide optimal sensitivity of detection of cell damage in subsequent calorimetric assays. […] The final volume of medium was 100 μl/well. The plates were further incubated at 37° C. for a total duration of 18-24 h. The dye MTT was used as a chromogenic indicator of the residual and metabolically active cell mass. (Described in Example 1).
# In this MTT assay, normalized absorbance data was collected semi-automatically from each microculture well with a Ceres UV 900 HD1 plate reader, from Biotek Instruments Inc., Winooski, V T 05404-0998, stored in an EIA file under the Ceres 900 program, transferred in comma delimited format to a floppy diskette, and imported into a spread sheet program (Borland Quattro Pro) for data manipulations.
# [5] = system: U937 cells; assay: Flow cytometric cell cycle analysis (propidium iodide); type: cell-based, human; settings: U937
# Description: Flow cytometric analyses were performed with a Coulter Epics System (purchased from Coulter Corp, Hialeah, Fla.). Cells were disrupted in buffer with 0.1% Triton-X 100 (or 0.6 % NP-40), so that the nuclei could be stained with 0.05% propidium iodide (PI). See Shapiro N M, Practical Flow Cytometry, Man R Liss, NY (1988); Nicoletti I et al., J Immunol Methods 139:271-9 (1991). Analyses of 10,000 nuclei were performed with graduated concentrations of dThd at serial time points. Histograms of PI fluorescent emissions at 675±10 nm were used to discriminate cell cycle fractions of the target population. The proportion of cells in each phase of the cell cycle is represented by stack bars above the X-axis as a fraction of those cells with intact DNA structure. The fraction of cells with depleted DNA in each sample is represented below the X-axis as a percentage of the total cell number. Cells with depleted DNA are presumed apoptotic. Crompton S T et. al. Biophys. Biochem. Res. Comm. 183:532-537 (1992). Each stack bar in FIG. 5 represents the cell cycle distribution of a population sample of >10,000 cells, analyzed for each indicated dThd concentration at indicated treatment times.
# Flow cytometric analyses were performed as in Example 2. The results are shown in plot A of FIG. 5 from Example 2.
# The U937 cells were exposed to a range of concentrations below the IC40 and sampled for flow cytometry at intervals of 8, 16, and 24 hours. Flow cytometric analysis was performed as described in Example 2.
# [6] = system: p. falciparum W2; assay: Parasite growth by 3H-hypoxanthine uptake in infected erythrocytes; type: cell-based; settings: Plasmodium falciparum, W2, Erythrocyte; 24 hr after RBC infection, 3H-hypoxanthine uptake; read-out: inhibitory concentrations (IC50), strain W2
# [7] = system: p. falciparum D6; assay: as above; type: cell-based; settings: Plasmodium falciparum, D6, Erythrocyte; 24 hr after RBC infection, 3H-hypoxanthine uptake; read-out: inhibitory concentrations (IC50), strain D6
# [8] = system: Burkitt's lymphoma cell line Raji; assay: MIS MTT growth inhibition assay; type: cell-based, human; settings: total 24 Hours
# [9] = after oral ingestion; cited from earlier work
# [10] = system: U937 cells; assay: DNA gel electrophoresis for DNA fragmentation (apoptosis); type: cell-based, human
# Description: Samples of the U937 cells were exposed to a series of concentrations of dThd for 24 hr. Their DNA was isolated by lysis of cell samples in TE buffer containing TRIS 10 mM, EDTA 10 mM, SDS 0.5% and proteinase K 200 μg/ml at […] for 2 h. The proteins were precipitated in a IM solution of NaCl and centrifuged at 2,500×g for 30 min at […] DNAse free RNase (25 μg/ml) was added to the supernatant and incubated for 30 min at 37° C. Spectrophotometric quantitation of the DNA in the supernatant was quantitated by absorbance spectrophotometry at 260 nm. Volumes adjusted to contain equal amounts of DNA were mixed with a loading buffer of 40% (w/v) sucrose, 0.1M EDTA pH 8.0, 0.5% (w/v) sodium lauryl sulphate and 0.05% (w/v) bromophenol blue. […] Separated bands of DNA were stained with ethidium bromide and photographed in UV light (Fotodyne Inc.). […] The lowest molecular weight (about 180 bp) was determined with a standard 123 bp ladder from Sigma Chemical Co. (Cat. #D5042). The result shown is a classical “DNA ladder,” characteristic of the fragmentation of DNA macromolecules in apoptosis. See Tomei, supra; Obeid, supra; Gold, supra.
# [11] = Homo sapiens, U-937, 4 h, U937, HU […] 4 H, K252a 0, read-out: MTT % inhibition, HU only
compound,measurement,setting,value
"CCN(CC)C(=O)c1cccc(C)c1 [DEET, N,N-Diethyl-m-toluamide]",Concentration inducing apoptosis,[1],above 0.5 mM
same,Concentration inducing apoptosis,[2],above 0.5 mM
same,Concentration inducing apoptosis,[3],above 0.5 mM
"NC(=O)NO [HU, hydroxyurea]",inhibition at 10 µM,"[4]; Homo sapiens, U-937, 4 h, U937, HU 0.01 mM 4 H, K252a 0, read-out: MTT % inhibition, HU only",-1%
same,inhibition at 20 µM,"[4]; Homo sapiens, U-937, 4 h, U937, HU 0.02 mM 4 H, K252a 0, read-out: MTT % inhibition, HU only",-1%
same,inhibition at 30 µM,"[4]; Homo sapiens, U-937, 4 h, U937, HU 0.03 mM 4 H, K252a 0, read-out: MTT % inhibition, HU only",1%
same,inhibition at 60 µM,"[4]; Homo sapiens, U-937, 4 h, U937, HU 0.06 mM 4 H, K252a 0, read-out: MTT % inhibition, HU only",9%
same,inhibition at 500 µM,"[4]; Homo sapiens, U-937, 4 h, U937, HU 0.50 mM 4 H, K252a 0, read-out: MTT % inhibition, HU only",48%
same,inhibition at 1000 µM,"[4]; Homo sapiens, U-937, 4 h, U937, HU 1.00 mM 4 H, K252a 0, read-out: MTT % inhibition, HU only",52%
same,inhibition at 2000 µM,"[4]; Homo sapiens, U-937, 4 h, U937, HU 2.00 mM 4 H, K252a 0, read-out: MTT % inhibition, HU only",59%
same,inhibition at 130 µM,[4]; [11],20%
same,inhibition at 250 µM,[4]; [11],36%
same,Enhancement of DEET-induced apoptosis as prospective RA,"[4]; MTT tests, about 0.05 to 3 mM, preliminary results",no significant enhancement of the DEET-induced apoptosis
same,"MTT % inhibition, HU only","[4]; U937, HU 0.00 mM (so in the source) 4 H, K252a 0",−2%
same,Cells that became DNA depleted,"[5]; 0.125-1 mM HU, up to 16 hr",no more than 20%
same,Cells with depleted DNA,[5]; HU>1 mM (2 mM at 24 hr),a major increase in cells with depleted DNA became evident
same,pIC50,[6],3.66
same,pIC50,[7],3.76
same,Growth Inhibition,[8]; HU only 0.00 mM,−3%
same,Growth Inhibition,[8]; HU only 0.01 mM,−0%
same,Growth Inhibition,[8]; HU only 0.02 mM,−7%
same,Growth Inhibition,[8]; HU only 0.03 mM,−7%
same,Growth Inhibition,[8]; HU only 0.05 mM,−7%
same,Growth Inhibition,[8]; HU only 0.50 mM,0%
same,Growth Inhibition,[8]; HU only 1.00 mM,0%
same,Growth Inhibition,[8]; HU only 2.00 mM,17%
same,Time of blood level peak,[9],2 to 4 h
"CCCCCCCCCCCCCC(=O)O[C@@H]1[C@@H](C)[C@@]2(O)[C@@H](C=C(CO)C[C@]3(O)C(=O)C(C)=C[C@@H]23)[C@H]2C(C)(C)[C@]12OC(C)=O [TPA, 12-0-tetradecanoyl-phorbol-13-acetate]",Effect on dThd potentiation of STSP DNA fragmentation,"[10]; 10 nM TPA 48 hours differentiation, then dThd […], STSP 25 nM 7 hours",significantly reduced dThd potentiation of DNA fragmentation during STSP treatment
"Nc1ccn([C@H]2C[C@H](O)[C@@H](CO)O2)c(=O)n1 [dCyt, deoxycytidine]",Effect on DNA fragmentation by dThd and STSP,[10]; dCyt added to U937 cultures treated with dThd and STSP,decreased DNA fragmentation

# — patent US6455593B1, “Method of dynamic retardation of cell cycle kinetics to potentiate cell damage” (priority 1995, dated 2002)
